Key:
enoxaparin = assay: FXa amidolytic assay (Example 10), enoxaparin; conditions: read-out: Enox FXa EC50; enoxaparin 0.1 ug/ml; human antithrombin, bovine Factor Xa
fondaparinux = assay: FXa amidolytic assay (Example 10), fondaparinux; conditions: read-out: Fondap FXa EC50; fondaparinux 0.02 μg/mL; human antithrombin, bovine Factor Xa
Unfractionated heparin = assay: aPTT clotting assay, UFH 0.4 U/mL in plasma (Example 10); assay type: biochemical; conditions: unfractionated heparin 0.4 U/mL in plasma; aPTT clotting
Experimental: aPTT clotting Assay: Unfractionated heparin was mixed with plasma at a final concentration of 0.4 U/mL (or concentration which increases aPTT time to between 120 and 300 seconds). […] The ACL Elite Hemostasis analyzer (Beckman Coulter™) was used to add aPTT reagent (HemosIL SynthASil) to supplemented plasma. Clotting was initiated by addition of CaCl2 and time to clot was recorded.

tinzaparin = assay: FXa amidolytic assay (Example 10), tinzaparin; conditions: read-out: Tinzap FXa EC50; tinzaparin 0.1 ug/ml; human antithrombin, bovine Factor Xa

SMILES	EC50 (enoxaparin) [µM]	EC50 (fondaparinux) [µM]	EC50 (Unfractionated heparin) [µM]	EC50 (tinzaparin) [µM]
COc1cc(OC)c(C(=O)NC2CCN(C(=O)c3cc(C(=O)N4CCC(NC(=O)c5cc(C(=O)NCCN)c(OC)cc5OC)CC4)c(OC)cc3OC)CC2)cc1C(=O)NCCN [Compound 393]	> 5	> 10	> 10	> 5
COc1cc(OC)c(C(=O)N[C@H]2CC[C@@H](NC(=O)c3cc(C(=O)N4CCC(CN)CC4)c(OC)cc3OC)CC2)cc1C(=O)N[C@H]1CC[C@@H](N=C(N(C)C)N(C)C)CC1 [Compound 416]	> 5	> 10	> 10	> 5
COc1ccc(NC(=O)[C@H](CCCCN)NC(=O)c2cc(NC(=O)[C@H](CCCCN)NC(=O)c3cc(NC(=O)[C@H](CCCCN)NC(=O)c4cnc(N)s4)ccc3OC)ccc2OC)cc1C(N)=O [Compound 247]	3.14	> 10	2.57	1.35
COc1ccc(NC(=O)[C@H](CCCCN)NC(=O)c2cc(NC(=O)[C@H](CCCCN)NC(=O)c3cc(NC(=O)[C@H](CCCCN)NC(=O)c4ccc(NC(=O)[C@@H](N)CCCCN)cc4OC)ccc3OC)ccc2OC)cc1C(N)=O [Compound 244]	0.229	4.71	1.46	0.113
COc1ccc(NC(=O)[C@H](CCCCN)NC(=O)c2cc(NC(=O)[C@@H](N)CCCCN)ccc2OC)cc1C(=O)N[C@@H](CCCCN)C(=O)Nc1ccc(OC)c(C(=O)N[C@@H](CCCCN)C(=O)Nc2ccc(OC)c(C(=O)N[C@H](Cc3ccccc3)C(=O)O)c2)c1 [Compound 264]	0.731	> 10	1.38	0.365
COc1cc(OC)c(C(=O)N[C@H]2CC[C@@H](NC(=O)c3cc(C(=O)N4CCC(CN)CC4)c(OCCCCCN)cc3OCCCCCN)CC2)cc1C(=O)N[C@H]1CC[C@@H](N=C(N(C)C)N(C)C)CC1 [Compound 424]	> 5	> 10	> 10	> 5
COc1cc(OC)c(C(=O)NCC2CCN(C(=O)c3cc(C(=O)N4CCC(CNC(=O)c5cc(C(=O)NCCN)c(OC)cc5OC)CC4)c(OC)cc3OC)CC2)cc1C(=O)NCCN [Compound 395]	> 5	> 10	> 10	> 5
COc1ccc(NC(=O)[C@@H](CCCNC(N)=O)NC(=O)c2cc(NC(=O)[C@@H](CCCNC(=N)N)NC(=O)c3cc(NC(=O)[C@@H](CCCNC(=N)N)NC(=O)c4cc(NC(=O)[C@H](N)CCCNC(=N)N)ccc4OC)ccc3OC)ccc2OC)cc1C(N)=O [Compound 255]	0.114	0.473	1.72	0.119
COc1ccc(NC(=O)[C@H](CCCCN)NC(=O)c2cc(NC(=O)[C@H](CCCCN)NC(=O)c3cc(NC(=O)[C@H](CCCCN)NC(=O)c4cccc(NC(=O)[C@@H](N)CCCCN)c4)ccc3OC)ccc2OC)cc1C(N)=O [Compound 216]	0.347	7.87	1.22	0.191
COc1cc(OC)c(C(=O)NCCCNC(=O)c2cc(C(=O)NCCCNC(=O)c3cc(C(=O)NCCCN)c(OC)cc3OC)c(OC)cc2OC)cc1C(=O)NCCCN [Compound 408]	> 5	> 10	> 10	> 5
COc1cc(OC)c(C(=O)N[C@H]2CC[C@H](NC(=O)c3cncc(C(=O)O)c3)CC2)cc1C(=O)NCCN [Compound 401]	> 5	> 10	> 10	> 5
COc1ccc(NC(=O)[C@H](N)CCCNC(=N)N)cc1C(=O)N[C@H](CCCNC(=N)N)C(=O)Nc1ccc(OC)c(C(=O)N[C@H](CCCNC(=N)N)C(=O)Nc2ccc(OC)c(C(=O)N[C@H](CCCNC(=N)N)C(=O)Nc3ccc(OCC(=O)O)c(C(N)=O)c3)c2)c1 [Compound 280]	0.133	0.581	1.63	0.12
COc1cc(OC)c(C(=O)N[C@H]2CC[C@@H](NC(=O)c3cc(C(=O)N4CCC(CN)CC4)c(OC)cc3OC)CC2)cc1C(=O)N[C@H]1CC[C@@H](NC(=O)c2cc(C(=O)N3CCC(CN)CC3)c(OC)cc2OC)CC1 [Compound 415]	> 5	> 10	> 10	> 5
COc1ccc(NC(=O)[C@@H](CCCNC(=N)N)NC(=O)c2cc(NC(=O)[C@@H](CCCNC(=N)N)NC(=O)c3cc(NC(=O)[C@@H](CCCNC(=N)N)NC(=O)c4cc(NC(=O)[C@H](N)CCCNC(=N)N)ccc4OC)ccc3OCC(=O)O)ccc2OC)cc1C(N)=O [Compound 282]	0.121	0.424	2	0.114
COc1ccc(NC(=O)[C@H](CCCCN)NC(=O)c2cc(NC(=O)[C@H](CCCCN)NC(=O)c3cc(NC(=O)[C@@H](N)CCCCN)ccc3OC)ccc2OC)cc1C(=O)N[C@@H](CCCCN)C(=O)Nc1ccc(OCC(=O)O)c(C(N)=O)c1 [Compound 269]	0.247	5.11	1.78	0.165

Continued, values first:

EC50 (enoxaparin) [µM]	EC50 (fondaparinux) [µM]	EC50 (Unfractionated heparin) [µM]	EC50 (tinzaparin) [µM]	SMILES
0.495	1.11	2.22	0.2	COc1cc(OC)c(C(=O)N[C@H]2CC[C@@H](NC(=O)c3cc(C(=O)N[C@H]4CC[C@@H](NC(=O)c5cc(C(=O)NC6CCNCC6)c(OC)cc5OC)CC4)c(OC)cc3OC)CC2)cc1C(=O)NC1CCNCC1 [Compound 417]
0.243	0.265	2.9	0.242	COc1ccc(NC(=O)[C@H](CCCNC(=N)N)NC(=O)c2cc(NC(=O)[C@H](CCCNC(=N)N)NC(=O)c3cc(NC(=O)[C@H](CCCNC(=N)N)NC(=O)c4cc(NC(C)=O)ccc4OC)ccc3OC)ccc2OC)cc1C(=O)NCC(=O)O [Compound 299]
1.07	> 10	1.66	0.472	COc1ccc(NC(=O)[C@H](CCCCN)NC(=O)c2cc(NC(=O)[C@@H](N)CCCCN)ccc2OC)cc1C(=O)N[C@@H](CCCCN)C(=O)Nc1ccc(OC)c(C(=O)N[C@@H](CCCCN)C(=O)Nc2ccc(SC)c(C(N)=O)c2)c1 [Compound 253]
> 5	> 10	> 10	> 5	COc1cc(OC)c(C(=O)N[C@H]2CC[C@@H](NC(=O)c3cc(C(=O)N[C@H]4CC[C@@H](N=C(N(C)C)N(C)C)CC4)c(OC)cc3OC)CC2)cc1C(=O)NC1CCNCC1 [Compound 418]
0.169	0.799	2.15	0.151	COc1ccc(NC(=O)[C@H](CCCNC(=N)N)NC(=O)c2cc(NC(=O)[C@H](CCCNC(=N)N)NC(=O)c3cc(NC(=O)[C@H](CCCNC(=N)N)NC(=O)c4cc(NC(=O)[C@@H](N)CCCNC(=N)N)ccc4OC)ccc3OC)ccc2OC)cc1C(=O)NCCC(=O)O [Compound 285]
0.173	0.955	2.59	0.115	COc1cc(OC)c(C(=O)N[C@H]2CC[C@H](NC(=O)c3cc(C(=O)NCCN(C)C)c(OCCCCCNC(=N)N)cc3OCCCCCNC(=N)N)CC2)cc1C(=O)N[C@H]1CC[C@@H](NC(=O)c2cc(C(=O)NCCN(C)C)c(OCCCCCNC(=N)N)cc2OCCCCCNC(=N)N)CC1 [Compound 222]
0.633	2.09	> 10	0.401	COc1ccc(NC(=O)[C@H](CCCCN)NC(=O)c2cc(NC(=O)[C@H](CCCCN)NC(=O)c3cc(NC(=O)[C@H](CCCCN)NC(=O)c4cc(N)cc(C(F)(F)F)c4)ccc3OC)ccc2OC)cc1C(N)=O [Compound 240]
0.316	0.802	4.09	0.248	COc1ccc(NC(=O)[C@H](CCCNC(=N)N)NC(=O)c2cc(NC(=O)[C@H](CCCNC(=N)N)NC(=O)c3cc(NC(=O)[C@H](CCCNC(=N)N)NC(=O)c4cc(NC(=O)[C@H](C)NC(=O)CCCCNC(=N)N)ccc4OC)ccc3OC)ccc2OC)cc1C(N)=O [Compound 223]
0.533	4.05	1.25	0.349	COc1ccc(NC(=O)[C@H](CCCCN)NC(=O)c2cc(NC(=O)[C@H](CCCCN)NC(=O)c3cc(NC(=O)[C@H](CCCCN)NC(=O)c4cc(NC(=O)[C@@H](N)CCCCN)ccc4OC)ccc3OC)ccc2OCC(=O)O)cc1C(N)=O [Compound 270]
0.376	3.46	1.59	0.268	COc1ccc(NC(=O)[C@H](CCCCN)NC(=O)c2cc(NC(=O)[C@H](CCCCN)NC(=O)c3cc(NC(=O)[C@H](CCCCN)NC(=O)c4cc(NC(=O)[C@H](C)N)ccc4OC)ccc3OC)ccc2OC)cc1C(N)=O [Compound 233]
1.03	6.77	1.93	0.47	COc1ccc(NC(=O)[C@H](CCCCN)NC(=O)c2cc(NC(=O)[C@H](CCCCN)NC(=O)c3cc(NC(=O)[C@H](CCCCN)NC(=O)c4cc(N)ccc4OC)ccc3OC)ccc2OC)cc1C(N)=O [Compound 327]
0.901	4.89	2.42	0.285	COc1ccc(NC(=O)[C@@H](CCCNC(=N)N)NC(=O)c2cc(NC(=O)[C@@H](CCC(=O)O)NC(=O)c3cc(NC(=O)[C@@H](CCCNC(=N)N)NC(=O)c4cc(NC(=O)[C@H](N)CCCNC(=N)N)ccc4OC)ccc3OC)ccc2OC)cc1C(N)=O [Compound 320]
0.312	0.387	3.99	0.325	COc1ccc(NC(=O)[C@@H](CCCNC(=N)N)NC(=O)c2cc(NC(=O)[C@@H](CCCNC(=N)N)NC(=O)c3cc(NC(=O)[C@@H](CCCNC(=N)N)NC(=O)c4cc(NC(C)=O)ccc4OC)ccc3OC)ccc2OC)cc1C(=O)NCCC(=O)O [Compound 295]

Reference: patent US20110178104A1, “Anti-Heparin Compounds” (POLYMEDIX INC., priority 2010, published 2011)
